Reference: ChEMBL document CHEMBL4513139, “CO-ADD screening of University of Strathclyde (UK) compounds”
In brackets after ≈: the same amount, converted by molar mass.

Legend:
HEK293 = experiment: cells; assay type: functional, Homo sapiens, ATCC CRL1573; settings: Homo sapiens, ATCC CRL1573, HEK293; ASSAY_TEST Inhibition of Cell Viability; detection method Resazurin; Fluorescence (ex560/em590); MEDIA DMEM with 10% FBS; plate type 384well; TC; CORNING #3712; time 18 hr; read-out: CC50
Staphylococcus aureus = experiment: microbe, parasite or virus in culture; settings: ATCC 43300, 18 h, ASSAY_TEST Inhibition of Bacterial Growth, detection method Absorption (OD600), MEDIA CAMHB, plate type 384well, NBS, CORNING #3640
Description: Antibacterial activity against Staphylococcus aureus MRSA ATCC 43300 (CO-ADD:GP_020); MIC in CAMBH media, using NBS plates, by OD(600)

Escherichia coli = experiment: microbe, parasite or virus in culture; settings: ATCC 25922, 18 h, ASSAY_TEST Inhibition of Bacterial Growth, detection method Absorption (OD600), MEDIA CAMHB, plate type 384well, NBS, CORNING #3640
Description: Antibacterial activity against Escherichia coli ATCC 25922 (CO-ADD:GN_001); MIC in CAMBH media using NBS plates, by OD(600)

Klebsiella pneumoniae = experiment: microbe, parasite or virus in culture; settings: ATCC 700603, 18 h, ASSAY_TEST Inhibition of Bacterial Growth, detection method Absorption (OD600), MEDIA CAMHB, plate type 384well, NBS, CORNING #3640
Description: Antibacterial activity against Klebsiella pneumoniae MDR ATCC 70063 (CO-ADD:GN_003); MIC in CAMBH media using NBS plates, by OD(600)

Pseudomonas aeruginosa = experiment: microbe, parasite or virus in culture; settings: ATCC 27853, 18 h, ASSAY_TEST Inhibition of Bacterial Growth, detection method Absorption (OD600), MEDIA CAMHB, plate type 384well, NBS, CORNING #3640
Description: Antibacterial activity against Pseudomonas aeruginosa ATCC 27853 (CO-ADD:GN_042); MIC in CAMBH media using NBS plates, by OD(600)

Acinetobacter baumannii = experiment: microbe, parasite or virus in culture; settings: ATCC 19606, 18 h, ASSAY_TEST Inhibition of Bacterial Growth, detection method Absorption (OD600), MEDIA CAMHB, plate type 384well, NBS, CORNING #3640
Description: Antibacterial activity against Acinetobacter baumannii ATCC 19606 (CO-ADD:GN_034); MIC in CAMBH media using NBS plates, by OD600

Candida albicans = experiment: microbe, parasite or virus in culture; settings: ATCC 90028, ASSAY_TEST Inhibition of Fungal Growth, detection method Absorption (OD530), plate type 384well, NBS, CORNING #3640
Description: Antifungal activity against Candida albicans ATCC 90028 (CO-ADD:FG_001); MIC in YNB media using NBS plates, by OD630

Description for Cryptococcus neoformans: Antifungal activity against Cryptococcus neoformans H99 ATCC 208821 (CO-ADD:FG_002); MIC in YNB media using NBS plates, by Resazurin OD(600-570)

Row | SMILES | MIC (Cryptococcus neoformans) [µg/mL] | MIC (Staphylococcus aureus) [µg/mL] | MIC (Escherichia coli) [µg/mL] | MIC (Klebsiella pneumoniae) [µg/mL] | MIC (Pseudomonas aeruginosa) [µg/mL] | MIC (Acinetobacter baumannii) [µg/mL] | MIC (Candida albicans) [µg/mL] | CC50 (HEK293) [µg/mL]
1 | CN(C)CCCn1cnc(NC(=O)c2cc(NC(=O)c3cc(NC(=O)c4cc5ccccc5cn4)cn3C)cn2C)c1.O=C(O)C(F)(F)F | 16 | > 32 | > 32 | > 32 | > 32 | > 32 | > 32 | 7.3
2 | Cn1cc(NC(=O)c2ccc(/C=C/c3cnc4ccccc4c3)cc2)cc1C(=O)Nc1nc(C(=O)NCCN2CCOCC2)c(CCc2ccccc2)s1.O=C(O)C(F)(F)F.O=C(O)C(F)(F)F | > 32 | > 32 | > 32 | > 32 | > 32 | > 32 | > 32 | > 32
3 | COC1CCN(CCNC(=O)c2cc(NC(=O)c3cc(NC(=O)c4ccc(/C=C/c5cnc6ccccc6c5)cc4)cn3C)cn2C)CC1 | 16 (≈ 24.3 µM) | ≤ 0.25 | > 32 | > 32 | > 32 | > 32 | 32 (≈ 48.5 µM) | 2.89 (≈ 4.38 µM)
4 | COc1cccc(/C=C/c2ccc(C(=O)Nc3cc(C(=O)Nc4cc(C(=O)NCCCN(C)C)n(C)c4)n(C)c3)cc2)c1.O=C(O)C(F)(F)F | > 32 | > 32 | > 32 | > 32 | > 32 | > 32 | > 32 | 11.4
5 | CC(C)CCc1sc(NC(=O)c2cc(NC(=O)c3cc4ccccc4cn3)cn2C)nc1C(=O)NCCCN(C)C.O=C(O)C(F)(F)F | > 32 | > 32 | > 32 | > 32 | > 32 | > 32 | > 32 | 2.17
6 | COc1ccc(C(=N)Nc2cc(C(=O)Nc3cc(C(=O)NCCN4CCOCC4)n(CCCc4cn(CCc5ccccc5)nn4)c3)n(C)c2)cc1.O=C(O)C(F)(F)F.O=C(O)C(F)(F)F | > 32 | > 32 | > 32 | > 32 | > 32 | > 32 | > 32 | > 32
7 | CC(C)CCc1sc(NC(=O)c2cc(NC(=O)c3cc(NC(=N)c4cnc5ccccc5c4)cn3C)cn2C)nc1C(=O)NCCCN(C)C.O=C(O)C(F)(F)F.O=C(O)C(F)(F)F | ≤ 0.25 | 1 | > 32 | > 32 | > 32 | > 32 | > 32 | 1.18
8 | CSc1ccc(/C=C/c2ccc3cc(C(=O)Nc4cc(C(=O)Nc5cc(C(=O)NCCN6CCOCC6)n(C)c5)n(C)c4)ccc3n2)cc1.O=C(O)C(F)(F)F | 8 | > 32 | > 32 | > 32 | > 32 | > 32 | 4 | > 32
9 | COc1cccc(C(=N)Nc2cc(C(=O)Nc3nc(C(=O)NCCN4CCOCC4)c(CCc4ccccc4)s3)n(C)c2)c1.O=C(O)C(F)(F)F.O=C(O)C(F)(F)F | 16 | 32 | > 32 | > 32 | > 32 | > 32 | > 32 | 2.59
10 | Cn1cc(NC(=O)c2cc(NC(=O)c3ccc(/C=C/c4cnc5ccccc5c4)cc3)cn2C)cc1C(=O)NCC[N+]1([O-])CCCCC1.O=C(O)C(F)(F)F | > 32 | > 32 | > 32 | > 32 | > 32 | > 32 | > 32 | 2.97
11 | COc1cccc(/C=C/c2ccc(C(=O)Nc3cc(C(=O)Nc4cc(C(=O)NCCN5CCC(O)CC5)n(C)c4)n(C)c3)cc2)c1.O=C(O)C(F)(F)F | > 32 | 16 | > 32 | > 32 | > 32 | > 32 | > 32 | 11.7
12 | COC(=O)c1ccc(C(=O)Nc2cc(C(=O)Nc3cc(C(=O)Nc4nc(C(=O)NCCCN(C)C)c(CCC(C)C)s4)n(C)c3)n(C)c2)cc1.O=C(O)C(F)(F)F | > 32 | > 32 | > 32 | > 32 | > 32 | > 32 | > 32 | 2.72
13 | COc1cccc(/C=C/c2ccc(C(=O)Nc3cc(C(=O)Nc4cc(C(=O)NCCN5CCOCC5)n(CCCc5cn(CCc6ccccc6)nn5)c4)n(C)c3)cc2)c1.O=C(O)C(F)(F)F | 32 | > 32 | > 32 | > 32 | > 32 | > 32 | > 32 | > 32

Further lines, with some results ahead:

Row | MIC (Cryptococcus neoformans) [µg/mL] | MIC (Staphylococcus aureus) [µg/mL] | MIC (Escherichia coli) [µg/mL] | MIC (Klebsiella pneumoniae) [µg/mL] | MIC (Pseudomonas aeruginosa) [µg/mL] | MIC (Acinetobacter baumannii) [µg/mL] | MIC (Candida albicans) [µg/mL] | SMILES | CC50 (HEK293) [µg/mL]
14 | > 32 | > 32 | > 32 | > 32 | > 32 | > 32 | > 32 | COc1cccc(C(=N)Nc2cc(C(=O)Nc3cc(C(=O)Nc4cc(C(=O)NCCCN(C)C)n(CCC(C)C)c4)n(C)c3)n(C)c2)c1 | > 32
15 | > 32 | > 32 | > 32 | > 32 | > 32 | > 32 | > 32 | Cn1cc(NC(=O)c2cc(NC(=O)c3ccc(/C=C/c4ccc(C(F)(F)F)cc4)cc3)cn2C)cc1C(=O)NCCN1CCOCC1.O=C(O)C(F)(F)F | > 32
16 | 16 | > 32 | > 32 | > 32 | > 32 | > 32 | > 32 | Cn1cc(NC(=O)c2ccc(/C=C/c3ccncc3)cc2)cc1C(=O)Nc1cc(C(=O)NCCN2CCOCC2)n(CCCCl)c1.O=C(O)C(F)(F)F.O=C(O)C(F)(F)F | 2.7
17 | > 32 | > 32 | > 32 | > 32 | > 32 | > 32 | > 32 | COc1ccc(/C=C/c2ccc(C(=O)Nc3cc(C(=O)Nc4cc(C(=O)NCCN5CCOCC5)n(C)c4)n(C)c3)cn2)cc1.O=C(O)C(F)(F)F.O=C(O)C(F)(F)F | 27.1
18 | 2 | ≤ 0.25 | > 32 | > 32 | > 32 | > 32 | 2 | COC1CCN(CCNC(=O)c2cc(NC(=O)c3cc(NC(=O)c4ccc(/C=C/c5ccc(N(C)C)cc5)nc4)cn3C)cn2C)CC1.O=C(O)C(F)(F)F.O=C(O)C(F)(F)F | 1.28
19 | > 32 | 2 (≈ 2.92 µM) | > 32 | > 32 | > 32 | > 32 | > 32 | COCCOC1CCN(CCNC(=O)c2cc(NC(=O)c3cc(NC(=O)c4ccc(/C=C/c5ccc(OC)cc5)nc4)cn3C)cn2C)CC1 | 3 (≈ 4.39 µM)
20 | > 32 | > 32 | > 32 | > 32 | > 32 | > 32 | > 32 | Cn1cc(NC(=O)c2cc(NC(=O)c3ccccc3)cn2C)cc1C(=O)NCCC(=N)N.O=C(O)C(F)(F)F | 7.43
21 | 1 | 1 | > 32 | > 32 | > 32 | > 32 | 2 | CN(C)c1ccc(/C=C/c2ccc(C(=O)Nc3cc(C(=O)Nc4cc(C(=O)NCCN5CCOCC5)n(C)c4)n(C)c3)cn2)cc1.O=C(O)C(F)(F)F | 1.11
22 | > 32 | > 32 | > 32 | > 32 | > 32 | > 32 | > 32 | COc1ccc(/C=C/c2ccc(C(=O)Nc3cc(C(=O)Nc4cc(C(=O)NCCN5CCOCC5)n(CCCc5cn(CCc6ccccc6)nn5)c4)n(C)c3)cn2)cc1 | > 32
23 | > 32 | 16 | > 32 | > 32 | > 32 | > 32 | > 32 | COCCOC1CCN(CCNC(=O)c2cc(NC(=O)c3cc(NC(=O)c4ccc(/C=C/c5ccc(OC)cc5)cc4)cn3C)cn2C)CC1.O=S(=O)(O)O | 1.57
24 | > 32 | > 32 | > 32 | > 32 | > 32 | > 32 | > 32 | COc1ccc(/C=C/c2ccc(C(=O)Nc3cc(C(=O)Nc4cc(C(=O)NCCN5CCC(OC)CC5)n(C)c4)n(C)c3)cc2)cc1.O=C(O)C(F)(F)F | 6.43
25 | 8 | > 32 | > 32 | > 32 | > 32 | > 32 | > 32 | CN(C)CCCNC(=O)c1cc(NC(=O)c2cc(NC(=O)c3cc(NC(=N)c4cnc5ccccc5c4)cn3C)cn2C)cn1C.O=C(O)C(F)(F)F.O=C(O)C(F)(F)F | > 32
